Results from US8461085B2, “Bioherbicide from Festuca spp” (Cornell Research Foundation, Inc., priority 2005, dated 2013).
pIC50: −log10 of the molar value. Like-named read-outs stand apart in the source and are kept apart here.

Experiments:
Tobacco = assay: Weed and crop Petri dish bioassay, radicle length; assay type: in vivo, Nicotiana tobacum L.
Procedure: (§1) m-Tyrosine activity was bioassayed using selected weed and crop species. Growth inhibition as measured by radicle elongation was evaluated in dandelion (Taraxacum officinale Weber in […].), large crabgrass (Digitaria sanguinalis (L.) Scop.), velvetleaf (Abutilon theophrasti Medicus), black medic (Medicago lupulina L.), curly cress (Lepidium sativum L.), bamyardgrass (Echinochloa crus-galli.(L.) Beauv.), lettuce (Lactuca sativa L.), purslane (Portulaca oleracea L.), annual bluegrass (Poa annua L.), birdsfoot trefoil (Lotus corniculatus L.), broadleaf plantain (Plantago major L.), mouseear chickweed (Cerastium vulgatum L.), common chickweed (Stellaria media (L.) Vill.), white clover (Trifolium repens L.), wheat (Triticum aestivum L.), tomato (Lycopersicon esculentum var. esculentum P. Mill.), tobacco (Nicotiana tobacum L.), and sorghum sudangrass hybrid (Sorghum bicolor x Sudanese). Weeds were purchased from HerbiSeeds, England, tomato seeds were purchased from Agway (Ithaca N.Y.), and wheat, sudex and tobacco where donated by Pioneer Seeds (Johnson, Iowa). Seeds were sterilized by a water: ethanol mixture (1:1) for one minute and rinsed three times thoroughly in distilled water. The simple phytotoxicity bioassay utilized consisted of the evaluation of radicle length of ten sterilized seeds of each weed/crop deposited on a filter paper containing the appropriate m-tyrosine test solution in 4.5 cm Petri dishes. […] A 1000 μL aliquot of the appropriate test solution was added to individual Petri dishes lined with Whatman No. 1 filter paper. Control dishes received 1000 μL of water. After seeds were placed on moistened filter paper, Petri dishes were transferred to a controlled environment with a light regime of 45,33 photon m^-2 s^-1 and maintained at an average temperature of 25° C. for 7 days. At the end of the incubation period, radicle length was measured. Treatments were replicated three times, and the experiment for each plant species tested was repeated three times.

Barnyard grass = assay: Weed and crop Petri dish bioassay, radicle length; assay type: in vivo, Echinochloa crus-galli (L.) Beauv.
Procedure: (§2) m-Tyrosine activity was bioassayed using selected weed and crop species. Growth inhibition as measured by radicle elongation was evaluated in dandelion (Taraxacum officinale Weber in […].), large crabgrass (Digitaria sanguinalis (L.) Scop.), velvetleaf (Abutilon theophrasti Medicus), black medic (Medicago lupulina L.), curly cress (Lepidium sativum L.), bamyardgrass (Echinochloa crus-galli.(L.) Beauv.), lettuce (Lactuca sativa L.), purslane (Portulaca oleracea L.), annual bluegrass (Poa annua L.), birdsfoot trefoil (Lotus corniculatus L.), broadleaf plantain (Plantago major L.), mouseear chickweed (Cerastium vulgatum L.), common chickweed (Stellaria media (L.) Vill.), white clover (Trifolium repens L.), wheat (Triticum aestivum L.), tomato (Lycopersicon esculentum var. esculentum P. Mill.), tobacco (Nicotiana tobacum L.), and sorghum sudangrass hybrid (Sorghum bicolor x Sudanese). Weeds were purchased from HerbiSeeds, England, tomato seeds were purchased from Agway (Ithaca N.Y.), and wheat, sudex and tobacco where donated by Pioneer Seeds (Johnson, Iowa). Seeds were sterilized by a water: ethanol mixture (1:1) for one minute and rinsed three times thoroughly in distilled water. […] At the end of the incubation period, radicle length was measured. […]

Escherichia coli = assay: Antibacterial disc assay; assay type: cell-based
Procedure: (§3) m-Tyrosine was evaluated for its effect on several bacteria (Bacillus cereus, Bacillus subtilis, and Escherichia coli) grown on nutrient agar (Difco) plates (9 cm) and a fungal culture (Metarhizium anisopliae ([…].)) grown on potato dextrose agar (Difco) plates. These plates were spread with either 0.5 mL aliquots of a liquid bacterial culture grown for 18 h in nutrient broth or with 0.5 mL of a fungal spore suspension (1×10^6 spores/mL), and were allowed to dry for approximately 30 minutes. […] A disc moistened with 10 μl of water served as negative control, and positive controls consisted of discs spiked with ampicillin and tetracycline (5 μg). The plates were placed in an incubator at 25° C., and visually checked for zones of inhibition for up to four days. All experiments were performed in triplicate.

Bacillus cereus = assay: Antibacterial disc assay; assay type: cell-based
Procedure: as §3

[1] = Dissolution in aqueous solution; assay type: physicochemical
[2] = test system: lettuce seedlings (Lactuca sativa L.); assay: Soil bioassay, lettuce root growth; assay type: in vivo; settings: for pIC50: Lactuca sativa; for Root Length of Lettuce Seedlings: m-tyrosine at 160 μM
crabgrass seedlings = assay: Soil bioassay, crabgrass root growth; assay type: in vivo, Digitaria sanguinalis L.; settings: Digitaria sanguinalis, soil media, read-out: concentration reducing root elongation by 50%
Excerpt: Large crabgrass was also included in the first two experiments because it is a common weed in turf settings. Prior experiments have shown that m-tyrosine is a potent inhibitor of root growth of large crabgrass and lettuce (Bertin et al., “Laboratory Assessment of the Allelopathic Effects of Fine Leaf Fescues,” J. Chem. Ecol. 29:1919-1937 (2003), which is hereby incorporated by reference in its entirety). Soil and MetroMix, as described as previously, were placed in 9-cm petri dishes, and 15 lettuce or crabgrass seeds were sown on the soil surface. Each experiment was replicated three times and was repeated over time.

[3] = test system: onion (Allium cepa L.) root cells; assay: Mitotic index of onion root tip cells; assay type: cell-based
Procedure: Root tips were stained for light microscopy examination using the Feulgen reaction. Root tips of three mm length were treated with a mixture of absolute ethanol:glacial acetic acid for two hours. The ethanol-glacial acetic acid mixture was removed and the tips were rinsed with distilled water. […] For each m-tyrosine concentration, five individual root tips were removed and macerated in a drop of 45% acetic acid on a slide, and the mitotic stages of the onion root tip cells were observed under a light microscope. […] One thousand cells were recorded per replication, resulting in observation of a total of 3000 cells per treatment. The experiment was repeated three times.

Tomato = assay: Weed and crop Petri dish bioassay, radicle length; assay type: in vivo, Lycopersicon esculentum var. esculentum P. Mill.
Procedure: as §1

Mouseear chickweed = assay: Weed and crop Petri dish bioassay, radicle length; assay type: in vivo, Cerastium vulgatum L.
Procedure: as §1

Large Crabgrass = assay: Weed and crop Petri dish bioassay, radicle length; assay type: in vivo, Digitaria sanguinalis (L.) Scop.
Procedure: as §1

Velvetleaf = assay: Weed and crop Petri dish bioassay, radicle length; assay type: in vivo, Abutilon theophrasti Medicus
Procedure: as §2

[4] = test system: Arabidopsis thaliana seedlings; assay: Arabidopsis root growth inhibition in growth media; assay type: in vivo; settings: Arabidopsis thaliana; applied to the growth media; mixture of D and L m-tyrosine; read-out: concentration reducing root length of Arabidopsis by 50%
[5] = test system: Metarhizium anisopliae (Metsch.); assay: Fungal disc assay; assay type: cell-based; settings: even at concentrations as high as 25 mM
Procedure: as §3

Lettuce = assay: Weed and crop Petri dish bioassay, radicle length; assay type: in vivo, Lactuca sativa L.
Procedure: as §2

**Q.** For `N[C@@H](Cc1cccc(O)c1)C(=O)O` [m-tyrosine, 3-hydroxyphenylalanine], which I10 (Tobacco) is on record?
**A.** 30 µM

**Q.** And the I100 (Tobacco)?
**A.** 160 µM

**Q.** What about the pIC50 (Tobacco; Nicotiana tabacum, read-out: I50) of the same compound?
**A.** 4.40

**Q.** What about the I10 (Barnyard grass) of the same compound?
**A.** 80 µM

**Q.** What about the pIC50 (Barnyard grass; Echinochloa crus-galli, read-out: I50) of the same compound?
**A.** 3.59

**Q.** And the “growth inhibition” value (Escherichia coli)?
**A.** not inhibited

**Q.** And the “growth inhibition” value (Bacillus cereus)?
**A.** not inhibited

**Q.** And the “dissolution in an aqueous solution” value [1]?
**A.** easily dissolved

**Q.** And the pIC50 ([2]; in soil, read-out: I50, 50% inhibition of root growth of lettuce)?
**A.** ~4.52

**Q.** And the pIC50 ([2]; soil media, lettuce, read-out: concentration reducing root elongation by 50%)?
**A.** 2.40

**Q.** And the “Root Length of Lettuce Seedlings” value ([2]; ammonium nitrate 0 mM)?
**A.** 2.07 (0.02) cm

**Q.** And the “Root Length of Lettuce Seedlings” value ([2]; ammonium nitrate 0.125 mM)?
**A.** 3.56 (0.07) cm

**Q.** And the “Root Length of Lettuce Seedlings” value ([2]; ammonium nitrate 0.25 mM)?
**A.** 4.82 (0.1) cm

**Q.** And the “Root Length of Lettuce Seedlings” value ([2]; ammonium nitrate 0.5 mM)?
**A.** 4.8 (0.09) cm

**Q.** What about the “Root Length of Lettuce Seedlings” value ([2]; ammonium nitrate 1.0 mM) of the same compound?
**A.** 4.8 (0.12) cm

**Q.** What about the “reduction of the inhibition of radicle elongation” value ([2]; with 1 mM NH4NO3 in comparison to m-tyrosine without soil NH4NO3) of the same compound?
**A.** approximately 25%

**Q.** And the pIC50 (crabgrass seedlings)?
**A.** 2.40

**Q.** And the “mitotic indices in all phases of mitosis” value ([3]; 20 μM)?
**A.** significantly reduced

**Q.** What about the “Anaphase, total cells observed” value ([3]; m-tyrosine 10 (μM)) of the same compound?
**A.** 1.6%

**Q.** And the “Metaphase, total cells observed” value ([3]; m-tyrosine 10 (μM))?
**A.** 1.4%

**Q.** What about the “Prophase, total cells observed” value ([3]; m-tyrosine 10 (μM)) of the same compound?
**A.** 2.2%

**Q.** What about the “Telophase, total cells observed” value ([3]; m-tyrosine 10 (μM)) of the same compound?
**A.** 2%

**Q.** And the “Anaphase, total cells observed” value ([3]; m-tyrosine 20 (μM))?
**A.** 1.1%

**Q.** What about the “Metaphase, total cells observed” value ([3]; m-tyrosine 20 (μM)) of the same compound?
**A.** 1%

**Q.** What about the “Prophase, total cells observed” value ([3]; m-tyrosine 20 (μM)) of the same compound?
**A.** 2%

**Q.** And the “Telophase, total cells observed” value ([3]; m-tyrosine 20 (μM))?
**A.** 1%

**Q.** What about the “Anaphase, total cells observed” value ([3]; m-tyrosine 40 (μM)) of the same compound?
**A.** 0.6%

**Q.** What about the “Metaphase, total cells observed” value ([3]; m-tyrosine 40 (μM)) of the same compound?
**A.** 0.4%

**Q.** What about the “Prophase, total cells observed” value ([3]; m-tyrosine 40 (μM)) of the same compound?
**A.** 1%

**Q.** What about the “Telophase, total cells observed” value ([3]; m-tyrosine 40 (μM)) of the same compound?
**A.** 0.2%

**Q.** And the “Anaphase, total cells observed” value ([3]; m-tyrosine 80 (μM))?
**A.** 0.5%

**Q.** And the “Metaphase, total cells observed” value ([3]; m-tyrosine 80 (μM))?
**A.** 0%

**Q.** And the “Prophase, total cells observed” value ([3]; m-tyrosine 80 (μM))?
**A.** 0.5%

**Q.** And the “Telophase, total cells observed” value ([3]; m-tyrosine 80 (μM))?
**A.** 0.2%

**Q.** And the “Anaphase, total cells observed” value ([3]; m-tyrosine 160 (μM))?
**A.** 0%

**Q.** And the “Metaphase, total cells observed” value ([3]; m-tyrosine 160 (μM))?
**A.** 0%

**Q.** What about the “Prophase, total cells observed” value ([3]; m-tyrosine 160 (μM)) of the same compound?
**A.** 0.2%

**Q.** And the “Telophase, total cells observed” value ([3]; m-tyrosine 160 (μM))?
**A.** 0.3%

**Q.** And the I10 (Tomato)?
**A.** 35 µM

**Q.** And the I100 (Tomato)?
**A.** 160 µM

**Q.** What about the pIC50 (Tomato; Solanum lycopersicum, read-out: I50) of the same compound?
**A.** 4.12

**Q.** What about the I10 (Mouseear chickweed) of the same compound?
**A.** 6 µM

**Q.** What about the I100 (Mouseear chickweed) of the same compound?
**A.** 47 µM

**Q.** What about the pIC50 (Mouseear chickweed; Cerastium, read-out: I50) of the same compound?
**A.** 5.05

**Q.** What about the I10 (Large Crabgrass) of the same compound?
**A.** 20 µM

**Q.** What about the I100 (Large Crabgrass) of the same compound?
**A.** 320 µM

**Q.** What about the pIC50 (Large Crabgrass; Digitaria sanguinalis, read-out: I50) of the same compound?
**A.** 4.42

**Q.** And the I10 (Velvetleaf)?
**A.** 40 µM

**Q.** What about the pIC50 (Velvetleaf; Abutilon theophrasti, read-out: I50) of the same compound?
**A.** 3.77

**Q.** And the pIC50 [4]?
**A.** 5.70

**Q.** What about the “sensitivity of fungal cultures” value [5] of the same compound?
**A.** not sensitive

**Q.** What about the I10 (Lettuce) of the same compound?
**A.** 6 µM

**Q.** And the pIC50 (Lettuce; Lactuca sativa, read-out: I50)?
**A.** 4.70
